This assay relates to human epithelial tumor cells. The following applies: DMEM/F12 based culture medium supplemented with BSA vs without; FIG. 10. How it is done: DF12: DMEM/F12 based culture medium. DF12+BSA: DMEM/12 based culture medium supplemented with BSA. Cell proliferation was measured by EdU incorporation. Error bars represent standard deviation (SD).

One substance from patent publication US20190284536A1, “EPITHELIAL TUMOR CELL CULTURES” (Beijing Percans Oncology Co., Ltd., priority 2016, published 2019) can be followed below.

For bovine serum albumin [BSA], the “growth of human epithelial tumor cells (cell proliferation by EdU incorporation)” value is reported as “supports the growth”.
